Ratio and Ki data for 53 molecules are collected here from ChEMBL document CHEMBL1138013, “Parallel methods for the preparation and SAR exploration of N-ethyl-4-[(8-alkyl-8-aza-bicyclo[3.2.1]oct-3-ylidene)-aryl-methyl]-benzamides, powerful mu and delta opioid agonists” (Bioorg Med Chem Lett, 2004).

Assay [1] addresses Mu-type opioid receptor (Mus musculus) (UniProt P42866). Nature of the assay: Ratio of binding affinity against mu to that of delta opioid receptor.
The next assay addresses Mu-type opioid receptor (Mus musculus, UniProt P42866). As to the kind of experiment: Binding affinity against mu opioid receptor […].
Assay [2] in a line: Binding affinity against delta opioid receptor […]. The arrangement: species or system Mus musculus.

Sequence of Mu-type opioid receptor (Mus musculus) (P42866 whole entry): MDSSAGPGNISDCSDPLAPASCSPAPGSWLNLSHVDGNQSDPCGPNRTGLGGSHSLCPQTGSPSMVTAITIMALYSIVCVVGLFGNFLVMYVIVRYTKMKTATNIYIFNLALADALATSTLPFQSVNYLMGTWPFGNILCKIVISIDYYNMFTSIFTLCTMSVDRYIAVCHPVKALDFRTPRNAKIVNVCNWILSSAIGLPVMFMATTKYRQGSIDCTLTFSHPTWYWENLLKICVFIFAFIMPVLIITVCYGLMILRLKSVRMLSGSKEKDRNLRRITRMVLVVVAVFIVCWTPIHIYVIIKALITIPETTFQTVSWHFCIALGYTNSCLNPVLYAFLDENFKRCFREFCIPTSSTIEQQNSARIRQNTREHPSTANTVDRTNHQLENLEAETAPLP
Sequence of Mu-type opioid receptor (P42866 whole entry): as above

What is called Ki is the dissociation constant of the complex between target and ligand, obtained from inhibition or displacement. `CCNC(=O)c1ccc(C(=C2CC3CCC(C2)N3Cc2ccoc2)c2ccc(CO)cc2)cc1`: in assay [1], the Ratio came out at 7. The Ki on Mu-type opioid receptor was found to be 19 nM; in assay [2], 2.7 nM.
The corresponding values for `C=C(C)CCN1C2CCC1CC(=C(c1ccc(C(=O)NCC)cc1)c1cccc(C(C)=O)c1)C2` are 1.1, 1.9 nM and 1.8 nM.
`CCNC(=O)c1ccc(/C(C#N)=C2\C[C@H]3CC[C@@H](C2)N3Cc2ccoc2)cc1`: the results for the inhibition constant (Ki) (at Mu-type opioid receptor; in assay [2]) were 2.6 nM and 0.9 nM, respectively.
On to `CCNC(=O)c1ccc(C(=C2CC3CCC(C2)N3Cc2ccoc2)c2ccc(C(=O)N(C)C)cc2)cc1`, for which the Ratio in assay [1] amounted to 1.5. The Ki amounted to 6.7 nM on Mu-type opioid receptor and 4.6 nM in assay [2].
For `CCNC(=O)c1ccc(C(Br)=C2CC3CCC(C2)N3Cc2ccoc2)cc1`, in that order: 2.4, 1.9 nM and 0.8 nM.
The corresponding values for `CCNC(=O)c1ccc(C(=C2CC3CCC(C2)N3Cc2ccoc2)c2cccc(N)c2)cc1` are 1.3, 2.6 nM and 2 nM.
For `CCNC(=O)c1ccc(C(=C2CC3CCC(C2)N3Cc2ccoc2)c2ccc(S(N)(=O)=O)cc2)cc1`, in that order: 3.1, 50 nM and 16 nM.
As to `CCNC(=O)c1ccc(/C(=C2\C[C@H]3CC[C@@H](C2)N3Cc2ccsc2)c2cccc(-c3nn[nH]n3)c2)cc1`, the results for the Ki (at Mu-type opioid receptor; in assay [2]) were 12 nM and 0.7 nM, respectively.
Regarding `CCNC(=O)c1ccc(C(=C2CC3CCC(C2)N3Cc2ccccn2)c2cccc(NC(C)=O)c2)cc1`, in assay [1], the Ratio worked out at 0.13. For the same molecule, the Ki was determined as 3.6 nM on Mu-type opioid receptor and 28 nM in assay [2].
For `CCNC(=O)c1ccc(C(=C2CC3CCC(C2)N3Cc2ccoc2)c2cc(C(=O)O)cc([N+](=O)[O-])c2)cc1`, in that order: 13, 12 nM and 0.94 nM.
Regarding `CCNC(=O)c1ccc(C(=C2CC3CCC(C2)N3Cc2ccoc2)c2cccc(-c3nn[nH]n3)c2)cc1`, the Ratio in assay [1] came out at 2100. For the same molecule, the inhibition constant (Ki) in assay [2] came to 0.73 nM.
As for `CCNC(=O)c1ccc(C(=C2CC3CCC(C2)N3Cc2ccoc2)c2ccccn2)cc1`, the Ratio in assay [1] was found to be 4.5. Besides, the Ki is 45 nM at Mu-type opioid receptor and 10 nM in assay [2].
The corresponding values for `CCNC(=O)c1ccc(C(=C2CC3CCC(C2)N3Cc2ccoc2)c2ccc(O)c(OC)c2)cc1` are 2, 0.59 nM and 0.3 nM.
In the case of `CCNC(=O)c1ccc(C(=C2CC3CCC(C2)N3Cc2ccoc2)c2c(C)cccc2C)cc1`, in assay [1], the Ratio was 1.1. Besides, the results for the Ki (at Mu-type opioid receptor; in assay [2]) were 1.4 nM and 1.3 nM, respectively.
For `CCNC(=O)c1ccc(C(=C2CC3CCC(C2)N3Cc2ccoc2)c2cncnc2)cc1`, in that order: 3, 6.9 nM and 2.3 nM.
The corresponding values for `CCN(CC)C(=O)c1ccc(C(=C2CC3CCC(C2)N3CCc2ccccc2)c2ccccc2)cc1` are 0.0055, 0.26 nM and 47 nM.
For `C=C(C)CCN1C2CCC1CC(=C(c1ccc(C(=O)NCC)cc1)c1ccco1)C2`, in that order: 1.1, 6.3 nM and 5.6 nM.
As to `CCNC(=O)c1ccc(C=C2CC3CCC(C2)N3Cc2ccoc2)cc1`, the Ratio in assay [1] was 1.2. Also, the values for the Ki (on Mu-type opioid receptor; in assay [2]) were 110 nM and 93 nM, respectively.
For `CCNC(=O)c1ccc(C(=C2CC3CCC(C2)N3Cc2ccoc2)c2ccc(C(=O)O)cc2)cc1`, in that order: 2.3, 12 nM and 5.3 nM.
The corresponding values for `CCNC(=O)c1ccc(C(=C2CC3CCC(C2)N3Cc2ccoc2)c2ccncc2)cc1` are 0.37, 2.2 nM and 6 nM.
Consider `CCNC(=O)c1ccc(/C(=C2\C[C@H]3CC[C@@H](C2)N3Cc2ccccn2)c2ccc(C(=O)N(C)C)cc2)cc1`, for which the Ki on Mu-type opioid receptor came out at 14 nM; in assay [2], 0.2 nM.
For `CCNC(=O)c1ccc(C(=C2CC3CCC(C2)N3Cc2ccoc2)c2cccc(CN)c2)cc1`, the Ratio in assay [1] is 3.6. The results for the Ki (at Mu-type opioid receptor; in assay [2]) were 71 nM and 20 nM, respectively.
As to `CCNC(=O)c1ccc(C(=C2CC3CCC(C2)N3Cc2ccoc2)c2cccc(C#N)c2)cc1`, the Ratio in assay [1] came out at 5.5. For the same molecule, the inhibition constant Ki on Mu-type opioid receptor turned out to be 3.3 nM; in assay [2], 0.6 nM.
For the molecule `CCNC(=O)c1ccc(C(=C2CC3CCC(C2)N3Cc2c[nH]cn2)c2cccc(NC(C)=O)c2)cc1`, the Ratio in assay [1] was determined as 0.5. Also, in assay [2], affinity was put at a Ki of 19 nM.
Consider `CCNC(=O)c1ccc(/C(=C2/C[C@H]3CC[C@@H](C2)N3Cc2ccccn2)c2ccc(C(=O)N(C)C)cc2)cc1`, for which the inhibitory constant (Ki) is 100 nM at Mu-type opioid receptor and 0.5 nM in assay [2].
`C=C(C)CCN1[C@@H]2CC[C@H]1C/C(=C(/c1ccc(C(=O)NCC)cc1)c1cccc(C(=O)O)c1)C2`: the results for the Ki (at Mu-type opioid receptor; in assay [2]) were 58 nM and 2.2 nM, respectively.
The corresponding values for `CCNC(=O)c1ccc(/C(C#N)=C2/C[C@H]3CC[C@@H](C2)N3Cc2ccoc2)cc1` are 2.3 nM and 1.1 nM.
Regarding `CCNC(=O)c1ccc(C(=C2CC3CCC(C2)N3Cc2ccoc2)c2nnn[nH]2)cc1`, the Ratio in assay [1] turned out to be 0.4. For the same molecule, the Ki at Mu-type opioid receptor stood at 83 nM; in assay [2], 210 nM.
Regarding `CCNC(=O)c1ccc(C(=C2CC3CCC(C2)N3Cc2ccoc2)c2ccc(S(C)(=O)=O)cc2)cc1`, the Ratio in assay [1] is 1.6. In addition, the inhibition constant (Ki) amounted to 3.1 nM at Mu-type opioid receptor and 2 nM in assay [2].
For the molecule `C=C(C)CCN1[C@@H]2CC[C@H]1C/C(=C(\c1ccc(C(=O)NCC)cc1)c1cccc(C(=O)O)c1)C2`, the results for the Ki (at Mu-type opioid receptor; in assay [2]) were 24 nM and 30 nM, respectively.
`CCNC(=O)c1ccc(C(=C2CC3CCC(C2)N3Cc2ccoc2)c2ccc(C(C)=O)cc2)cc1`: the Ratio in assay [1] was determined as 5.2. Also, the values for the Ki (on Mu-type opioid receptor; in assay [2]) were 1.7 nM and 0.33 nM, respectively.
In the case of `CCNC(=O)c1ccc(C(=C2CC3CCC(C2)N3Cc2ccoc2)c2ccc([N+](=O)[O-])cc2)cc1`, the Ratio in assay [1] is 6.5. In addition, the figures for the Ki (at Mu-type opioid receptor; in assay [2]) were 1.5 nM and 0.23 nM, respectively.
For `CCNC(=O)c1ccc(C(=C2CC3CCC(C2)N3Cc2ccoc2)c2cnccn2)cc1`, in that order: 2.9, 9.9 nM and 3.4 nM.
Take `CCNC(=O)c1ccc(/C(=C2/C[C@H]3CC[C@@H](C2)N3Cc2ccsc2)c2cccc(-c3nn[nH]n3)c2)cc1`: the Ki on Mu-type opioid receptor was found to be 3100 nM; in assay [2], 31 nM.
Take `CCNC(=O)c1ccc(C(=C2CC3CCC(C2)N3Cc2ccoc2)c2c(C)noc2C)cc1`: the Ratio in assay [1] was found to be 1.5. The Ki at Mu-type opioid receptor was found to be 1.8 nM; in assay [2], 1.2 nM.
Take `CCNC(=O)c1ccc(/C(Br)=C2\C[C@H]3CC[C@@H](C2)N3Cc2ccoc2)cc1`: the values for the Ki (at Mu-type opioid receptor; in assay [2]) were 0.2 nM and 0.3 nM, respectively.
Turning to `CCNC(=O)c1ccc(C(C#N)=C2CC3CCC(C2)N3Cc2ccoc2)cc1`, in assay [1], the Ratio worked out at 3.3. The Ki at Mu-type opioid receptor came out at 1 nM; in assay [2], 0.3 nM.
For `CCNC(=O)c1ccc(/C(Br)=C2/C[C@H]3CC[C@@H](C2)N3Cc2ccoc2)cc1`, the figures for the Ki (at Mu-type opioid receptor; in assay [2]) were 39 nM and 29 nM, respectively.
Regarding `CCNC(=O)c1ccc(C(=C2CC3CCC(C2)N3Cc2ccoc2)c2cccnc2)cc1`, in assay [1], the Ratio turned out to be 3. In addition, the Ki was found to be 1.2 nM on Mu-type opioid receptor and 0.4 nM in assay [2].
As to `CCNC(=O)c1ccc(C(=C2CC3CCC(C2)N3Cc2cccnc2)c2ccccc2)cc1`, the Ratio in assay [1] stood at 0.87. Moreover, affinity in assay [2] was put at a Ki of 71 nM.
Take `CCNC(=O)c1ccc(C(=C2CC3CCC(C2)N3Cc2cnc[nH]2)c2cccc(NC(C)=O)c2)cc1`: the Ki at Mu-type opioid receptor was 9.4 nM.
In the case of `CCNC(=O)c1ccc(C(=C2CC3CCC(C2)N3Cc2ccoc2)c2cnc3ccccc3c2)cc1`, the Ratio in assay [1] worked out at 0.2. Besides, the values for the inhibitory constant (Ki) (on Mu-type opioid receptor; in assay [2]) were 4 nM and 20 nM, respectively.
The corresponding values for `CCNC(=O)c1ccc(C(=C2CC3CCC(C2)N3CCc2ccccc2)c2ccccc2)cc1` are 300, 72 nM and 0.24 nM.
`CCNC(=O)c1ccc(/C(=C2\C[C@H]3CC[C@@H](C2)N3Cc2ccsc2)c2ccc(CO)cc2)cc1`: the Ki at Mu-type opioid receptor came out at 17 nM; in assay [2], 2 nM.
As to `CCNC(=O)c1ccc(C(=C2CC3CCC(C2)N3Cc2ccoc2)c2cccc(NC(C)=O)c2)cc1`, the Ratio in assay [1] was 2.4. Also, the Ki on Mu-type opioid receptor worked out at 1.2 nM; in assay [2], 0.5 nM.
On to `CCNC(=O)c1ccc(/C(=C2/C[C@H]3CC[C@@H](C2)N3Cc2ccsc2)c2ccc(CO)cc2)cc1`, for which the Ki at Mu-type opioid receptor turned out to be 80 nM; in assay [2] it was 17 nM.
`C=C(C)CCN1[C@@H]2CC[C@H]1C/C(=C(\c1ccc(C(=O)NCC)cc1)c1cccc(C(C)=O)c1)C2`: the results for the Ki (on Mu-type opioid receptor; in assay [2]) were 680 nM and 28 nM, respectively.
With `CCNC(=O)c1ccc(C(=C2CC3CCC(C2)N3Cc2ccoc2)c2ccc(N(C)C)cc2)cc1`, in assay [1], the Ratio amounted to 5.9. In addition, the Ki on Mu-type opioid receptor is 51 nM; in assay [2], 8.7 nM.
In the case of `CCNC(=O)c1ccc(C(=C2CC3CCC(C2)N3Cc2cccc(C(=O)O)c2)c2ccccc2)cc1`, the Ratio in assay [1] was 1.7. Moreover, the inhibition constant Ki amounted to 480 nM on Mu-type opioid receptor and 280 nM in assay [2].
Take `CCNC(=O)c1ccc(C(=C2CC3CCC(C2)N3Cc2ccoc2)c2ccc3c(c2)OCO3)cc1`: the Ratio in assay [1] was determined as 1. This molecule also returned a Ki at Mu-type opioid receptor of 1.1 nM.
As for `C=C(C)CCN1[C@@H]2CC[C@H]1C/C(=C(/c1ccc(C(=O)NCC)cc1)c1cccc(C(C)=O)c1)C2`, the Ki on Mu-type opioid receptor worked out at 2.8 nM; in assay [2], 1.5 nM.
As for `CCNC(=O)c1ccc(C(=C2CC3CCC(C2)N3Cc2ccoc2)c2ccc(C(N)=O)cc2)cc1`, in assay [1], the Ratio turned out to be 0.33. Further, the Ki at Mu-type opioid receptor worked out at 1.3 nM; in assay [2], 3.9 nM.
On to `CCNC(=O)c1ccc(C(=C2CC3CCC(C2)N3Cc2ccoc2)c2cccc(C(=O)O)c2)cc1`, for which the Ratio in assay [1] came out at 8. Moreover, the affinity in assay [2], expressed as Ki, was 3.5 nM.
